# Test results taken from paper PMC7142633, “Impact of B-Ring Substitution and Acylation with Hydroxy Cinnamic Acids on the Inhibition of Porcine α-Amylase by Anthocyanin-3-Glycosides” (Foods, 2020).
# Read-outs that look alike come from different tables or passages of the source. Marks after values point to notes of the source that are not given here.
# What was measured:
# [1] = target: T1, α-amylase from porcine pancreas (Sus scrofa, UniProt P00690); assay: α-amylase enzyme activity assay, GalG2CNP conversion, UV/Vis detection of CNP at 405 nm; assay type: biochemical; settings: for IC50: read-out: IC50 (Cheng−Prussoff, Equation (9)); for Kmapp / vmaxapp: Michaelis Menten fit
# T1 construct: A saline suspension of α-amylase from porcine pancreas; purchased Sigma Aldrich (Steinheim, Germany) Lot #SLBN9170V (catalogue number not given); host or cells: porcine pancreas (tissue-derived)
# T1 sequence (P00690 16-511): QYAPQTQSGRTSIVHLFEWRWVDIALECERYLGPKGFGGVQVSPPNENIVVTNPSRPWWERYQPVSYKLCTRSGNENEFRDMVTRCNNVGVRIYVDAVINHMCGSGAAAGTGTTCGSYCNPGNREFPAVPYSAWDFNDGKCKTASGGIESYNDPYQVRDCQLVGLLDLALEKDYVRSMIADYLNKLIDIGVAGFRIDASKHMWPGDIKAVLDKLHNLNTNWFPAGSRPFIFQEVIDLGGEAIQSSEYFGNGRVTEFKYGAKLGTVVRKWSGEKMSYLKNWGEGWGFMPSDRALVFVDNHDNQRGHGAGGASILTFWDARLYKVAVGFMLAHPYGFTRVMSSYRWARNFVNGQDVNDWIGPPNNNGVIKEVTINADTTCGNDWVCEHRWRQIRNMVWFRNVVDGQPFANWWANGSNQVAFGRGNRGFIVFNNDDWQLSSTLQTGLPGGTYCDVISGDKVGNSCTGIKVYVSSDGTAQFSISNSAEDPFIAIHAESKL
# Method: The enzyme activity assay, […], was established by Homoki and co-workers and already used by the authors to evaluate the inhibitory strength of different phenolic structures. To enable the evaluation of the result obtained in the present study compared to the non-anthocyanin phenolics investigated previously, the assay conditions were identical. In short, to 12 different GalG2CNP concentrations ([S] = 0−2000 µM) in MES^+ buffer, inhibitor [I] and 50 µL enzyme solution (c = 1.51 units/~100 pM, on the basis of supplier information) were mixed in a microtiter plate (Greiner BioOne, Frickenhausen, Germany; transparent, F-bottom). For blanks, the enzyme solution was substituted with MES^+ buffer. The final volume per well was 250 µL. To quantify the reaction product, a linear calibration with eight different CNP concentrations in the range of 0−35 µM was performed for each plate. Dilutions of the anthocyanin stock solutions (0.1% HCl) were equilibrated at pH 6.1 for one hour. Final inhibitor concentrations were limited due to its strong absorption at 405 nm to 12.5, 25, and 50 µM. For each anthocyanin structure, the assay was conducted on two to three different days with freshly prepared stocks of substrate, enzyme, and inhibitor.
# In addition to the Michaelis Menten constant (Km) and the maximal conversion rate (vmax) values (Table S1), inhibition constants (Kic, Kiu) were calculated by fitting the data by two approaches: (i) According to the mixed inhibition equation (Equation (4)) or competitive inhibition equation (Equation (5)), applying an optimal global fit containing data from all inhibitor concentrations including the control ([I] = 0 µM); and (ii) by an independent fit according to the Michaelis Menten equation (Equation (6)), providing the apparent values Km^app and Vmax^app (Table S2) for each inhibitor concentration, which were then used to calculate the inhibition constants (Equations (7) and (8)). (4) v0= vmax/Km/[S] · (1+[I]/Kic)+(1+[I]/Kiu), (5) v0=vmax/Km/[S] · ( 1+[I]/Kic)+1, (6) v0=vmax · [S]/Km+[S], (7) Kic=vmax^app/Km^app · [I]/vmax/Km−vmax^app/Km^app, (8) Kiu=vmax^app · [I]/vmax− vmax^app.
# The IC50 values of the different anthocyanins were derived from the inhibition constants for different substrate concentrations by the Cheng−Prusoff equation (Equation (9)). (9) IC50=(Km+[S])/Km/Kic+[S]/Kiu.
# • KM: Michaelis Menten constant (µM) • vmax: Maximal conversion rate of the uninhibited reaction (µM/min) • v0: Observed conversion rate at given substrate and inhibitor concentration (µM/min) • [S]: Substrate concentration • [I]: Inhibitor concentration • Kic: Inhibitor constant, reflecting the competitive inhibition in the equation (µM) • Kiu: Inhibitor constant, reflecting the uncompetitive inhibition in the equation (µM) • vmax^app: Calculated maximal conversion rate, when the Michaelis Menten equation is used on an inhibited curve (µM/min) • Km^app: Calculated Michaelis Menten constant, when the Michaelis Menten equation is used on an inhibited curve (µM) • IC50: Half maximal inhibitory concentration (inhibitor concentration needed to achieve 50% inhibition; it is dependent on the substrate concentration) (µM)
# For data analyses and calculations, Origin 2018b (OriginLab, software extension Enzyme Kinetics) was used. The Levenberg−Marquardt algorithm procedure was chosen for iteration. All assays were performed in two independent replicates at different dates. Values are expressed in arithmetic means ± average deviation (AD). The statistical significance and differences between groups were analyzed by one-way analysis of variance (ANOVA), followed by Tukey’s test. Differences were considered significant when p < 0.05. Data were processed using Microsoft Excel® (2010).
# human salivary α-amylase = target: human salivary α-amylase; parameters: method as in PMID 26471548; settings: cited from earlier work
# [2] = target: porcine pancreatic α-amylase; parameters: method as in doi:10.1016/j.jff.2015.11.042; settings: cited from earlier work
# [3] = aqueous solution; cited from earlier work
# [4] = target: T1, α-amylase from porcine pancreas; assay: Isothermal titration calorimetry, single injection, GalG2CNP conversion; assay type: biochemical; settings: 100 µM inhibitor, 0.95 mM substrate, 37 °C
# Method: To evaluate the inhibitory strength of 100 µM anthocyanin-3-glucosides and black carrot anthocyanins, GalG2CNP conversion to CNP was monitored by the released heat. According to the previous study, ITC measurements were carried out in a single injection experiment set-up on a MICROCALTM PEAQ-ITC calorimeter (S/N MAL1188053, Malvern Panalytical Almelo, Netherlands). Following an equilibration time of 10 min, 1 µL α-amylase (1 µM in 50 mM MES^+ buffer) was added to 0.95 mM of the substrate with or without 100 µM of the phenolic inhibitor in the cell (Vcell = 0.207 mL). The temperature was maintained at 37 °C and the sample was stirred at 750 rpm throughout. The feedback/gain mode was set to high. The resulting heat profile was transformed and the conversion rate was plotted against the substrate concentration [S] by an origin routine template provided by Malvern® for Origin version 7.
# [5] = (i) Kic and Kiu by global fit, [S] 10 µM
# [6] = (i) Kic and Kiu by global fit, [S] 100 µM
# [7] = (i) Kic and Kiu by global fit, [S] 10^3 µM
# [8] = (i) Kic and Kiu by global fit, [S] 10^6 µM
# [9] = (i) global fit, mixed inhibition Equation (4), read-out: Kic
# [10] = (i) global fit, mixed inhibition Equation (4), read-out: Kiu
# [11] = (ii) Kic and Kiu by independent fit, [S] 10 µM
# [12] = (ii) Kic and Kiu by independent fit, [S] 100 µM
# [13] = (ii) Kic and Kiu by independent fit, [S] 10^3 µM
# [14] = (ii) Kic and Kiu by independent fit, [S] 10^6 µM
# [15] = (ii) independent Michaelis Menten fit (Equation (6)), calculation by Equation (7), read-out: Kic
# [16] = (ii) independent Michaelis Menten fit (Equation (6)), calculation by Equation (8), read-out: Kiu
# [17] = (ii) independent fit, Equations (7) and (8)
# [18] = from apparent values, inhibitor c 25 µM, read-out: Kic
# [19] = from apparent values, inhibitor c 25 µM, read-out: Kiu
# [20] = from apparent values, inhibitor c 50 µM, read-out: Kic
# [21] = from apparent values, inhibitor c 50 µM, read-out: Kiu
# [22] = from apparent values, inhibitor c 12,5 µM, read-out: Kic
# [23] = from apparent values, inhibitor c 12,5 µM, read-out: Kiu
smiles,measurement,setting,value
"OC[C@H]1O[C@@H](Oc2cc3c(O)cc(O)cc3[o+]c2-c2ccc(O)c(O)c2)[C@H](O)[C@@H](O)[C@@H]1O [Cyd-glc, cyanidin-3-glucoside]",IC50,[1]; [5],83 ± 11 µM
same,IC50,[1]; [6],97 ± 15 µM
same,IC50,[1]; [7],147 ± 36 µM
same,IC50,[1]; [8],184 ± 56 µM
same,Kic/Kiu,"[1]; (i) global fit, Equation (4)",0.45 ± 0.08 ***^a
same,Ki,[1]; [9],81 ± 10 µM
same,Ki,[1]; [10],184 ± 56 µM
same,IC50,[1]; [11],137 µM
same,IC50,[1]; [12],153 µM
same,IC50,[1]; [13],201 µM
same,IC50,[1]; [14],228 µM
same,Ki,[1]; [15],134 µM
same,Ki,[1]; [16],228 µM
same,Kic/Kiu,[1]; [17],0.56 *^a
same,Kmapp,[1]; inhibitor c 25 µM,285 µM
same,vmaxapp,[1]; inhibitor c 25 µM,"0,74 ± 0,26 µM/min"
same,Kmapp,[1]; inhibitor c 50 µM,300 µM
same,vmaxapp,[1]; inhibitor c 50 µM,"0,69 ± 0,21 µM/min"
same,Kmapp,"[1]; inhibitor c 12,5 µM",244 µM
same,vmaxapp,"[1]; inhibitor c 12,5 µM","0,79 ± 0,23 µM/min"
same,Ki,[1]; [18],64 µM
same,Ki,[1]; [19],141 µM
same,Ki,[1]; [20],103 µM
same,Ki,[1]; [21],250 µM
same,Ki,[1]; [22],236 µM
same,Ki,[1]; [23],146 µM
same,Ki,"[1]; mean over inhibitor c 12,5, 25, 50 µM (Supplementary 2), read-out: Kiu mean ± SD",179 ± 62 µM
same,IC50,human salivary α-amylase,180 ± 20 µM
same,inhibition type,human salivary α-amylase,competitive inhibition type
same,IC50,[2],24 ± 3 µM
same,inhibition type,[2],competitive inhibition type
same,pKH,[3],3.02 ± 0.06
"OC[C@H]1O[C@@H](Oc2cc3c(O)cc(O)cc3[o+]c2-c2ccc(O)cc2)[C@H](O)[C@@H](O)[C@@H]1O [Plg-glc, pelargonidin-3-glucoside]",IC50,[1]; [5],58 ± 15 µM
same,IC50,[1]; [6],71 ± 20 µM
same,IC50,[1]; [7],117 ± 41 µM
same,IC50,[1]; [8],151 ± 59 µM
same,Kic/Kiu,"[1]; (i) global fit, Equation (4)",0.39 ± 0.05 ^a
same,Ki,[1]; [9],57 ± 15 µM
same,Ki,[1]; [10],151 ± 59 µM
same,IC50,[1]; [11],71 ± 2 µM
same,IC50,[1]; [12],84 ± 7 µM
same,IC50,[1]; [13],127 ± 31 µM
same,IC50,[1]; [14],158 ± 53 µM
same,Ki,[1]; [15],69 ± 1 µM
same,Ki,[1]; [16],158 ± 53 µM
same,Kic/Kiu,[1]; [17],0.46 ± 0.13 ^a
same,Kmapp,[1]; inhibitor c 25 µM,258 ± 13 µM
same,vmaxapp,[1]; inhibitor c 25 µM,"0,58 ± 0,22 µM/min"
same,Kmapp,[1]; inhibitor c 50 µM,325 ± 42 µM
same,vmaxapp,[1]; inhibitor c 50 µM,"0,53 ± 0,23 µM/min"
same,Kmapp,"[1]; inhibitor c 12,5 µM",235 ± 2 µM
same,vmaxapp,"[1]; inhibitor c 12,5 µM","0,65 ± 0,23 µM/min"
same,Ki,[1]; [18],62 ± 7 µM
same,Ki,[1]; [19],126 ± 30 µM
same,Ki,[1]; [20],55 ± 19 µM
same,Ki,[1]; [21],163 ± 64 µM
same,Ki,[1]; [22],91 ± 22 µM
same,Ki,[1]; [23],187 ± 64 µM
same,pKH,[3],2.98 ± 0.06
"OC[C@H]1O[C@@H](Oc2cc3c(O)cc(O)cc3[o+]c2-c2cc(O)c(O)c(O)c2)[C@H](O)[C@@H](O)[C@@H]1O [Dpd-glc, delphinidin-3-glucoside]",IC50,[1]; [5],64 ± 25 µM
same,IC50,[1]; [6],77 ± 25 µM
same,IC50,[1]; [7],134 ± 1 µM
same,Kic/Kiu,"[1]; (i) global fit, Equation (4)",0.34 ± 0.24 ^a
same,Ki,[1]; [9],62 ± 25 µM
same,Ki,[1]; [10],204 ± 68 µM
same,IC50,[1]; [11],65 ± 20 µM
same,IC50,[1]; [12],83 ± 24 µM
same,IC50,[1]; [13],167 ± 20 µM
same,IC50,[1]; [14],270 ± 32 µM
same,Ki,[1]; [15],63 ± 19 µM
same,Ki,[1]; [16],270 ± 33 µM
same,Kic/Kiu,[1]; [17],0.26 ± 0.13 ^a
same,Kmapp,[1]; inhibitor c 25 µM,273 ± 52 µM
same,vmaxapp,[1]; inhibitor c 25 µM,"0,79 ± 0,09 µM/min"
same,Kmapp,[1]; inhibitor c 50 µM,335 ± 129 µM
same,vmaxapp,[1]; inhibitor c 50 µM,"0,69 ± 0,03 µM/min"
same,Kmapp,"[1]; inhibitor c 12,5 µM",247 ± 33 µM
same,vmaxapp,"[1]; inhibitor c 12,5 µM","0,84 ± 0,10 µM/min"
same,Ki,[1]; [18],63 ± 17 µM
same,Ki,[1]; [19],233 ± 25 µM
same,Ki,[1]; [20],60 ± 27 µM
same,Ki,[1]; [21],212 ± 87 µM
same,Ki,[1]; [22],66 ± 14 µM
same,Ki,[1]; [23],364 ± 13 µM
same,Ki,"[1]; mean over inhibitor c 12,5, 25, 50 µM (Supplementary 2), read-out: Kic mean ± SD",63 ± 3 µM
same,"inhibitory strength by ITC (thermogram, Michaelis Menten plot)",[4],Mlv-3-glc > Cyd-3-glc > Dpd-3-glc~Peo-3-glc
same,pKH,[3],2.36 ± 0.05
